Patent publication US20200016159A1, “N3-CYCLICALLY SUBSTITUTED THIENOURACILS AND USE THEREOF” (Bayer Aktiengesellschaft, priority 2016, published 2020)

Molecular target: T1, human adenosine A2b receptor (Homo sapiens, UniProt P29275)
T1 sequence (P29275 1-332): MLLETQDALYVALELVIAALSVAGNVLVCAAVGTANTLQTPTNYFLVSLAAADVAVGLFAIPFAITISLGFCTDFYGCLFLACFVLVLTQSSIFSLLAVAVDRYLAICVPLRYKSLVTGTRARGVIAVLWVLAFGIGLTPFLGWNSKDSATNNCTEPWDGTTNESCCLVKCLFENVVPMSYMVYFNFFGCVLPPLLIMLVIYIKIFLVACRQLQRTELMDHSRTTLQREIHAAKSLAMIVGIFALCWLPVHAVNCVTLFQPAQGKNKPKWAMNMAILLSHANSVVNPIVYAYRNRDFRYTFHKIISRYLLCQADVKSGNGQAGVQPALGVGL
Test: Cellular in vitro reporter gene test for A2b receptor activity (antagonism of NECA)
Format: cell-based
Set-up: expressed in transfected cells; host or cells: CHO-K1 (Chinese hamster ovary) with CRE-luciferase reporter
Details: recombinant CHO-K1 cells, CRE-luciferase reporter, co-incubation with EC50 concentration of NECA, 3 hours
Method in brief: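 CHO-K1 cells expressing recombinant human A2b receptor plus a CRE-driven firefly luciferase reporter. Compounds co-incubated with NECA at its same-day EC50 concentration; luminescence read 3 hours after NECA addition. IC50 values, sometimes means of several determinations rounded to two significant figures.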

IC50 [µM]	Structure (SMILES)
0.07	COCCn1c(=O)n(C2CC3(CCC3)C2)c(=O)c2c(C)c(Cn3nc[nH]c3=O)sc21 [Example 183, 1-(2-Methoxyethyl)-5-methyl-6-[(5-oxo-4,5-dihydro-1H-1,2,4-triazol-1-yl)methyl]-3-(spiro[3.3]hept-2-yl)thieno[2,3-d]pyrimidine-2,4(1H,3H)-dione]
0.0069	Cc1c(CN2CCNC2=O)sc2c1c(=O)n(C1CCCC1)c(=O)n2CCC(F)(F)F [Example 184, 3-Cyclopentyl-5-methyl-6-[(2-oxoimidazolidin-1-yl)methyl]-1-(3,3,3-trifluoropropyl)thieno[2,3-d]pyrimidine-2,4(1H,3H)-dione]
0.016	Cc1c(CN2CCNC2=NC#N)sc2c1c(=O)n(C1CCCC1)c(=O)n2CCC(F)(F)F [Example 185, [1-{[3-Cyclopentyl-5-methyl-2,4-dioxo-1-(3,3,3-trifluoropropyl)-1,2,3,4-tetrahydrothieno[2,3-d]pyrimidin-6-yl]methyl}imidazolidin-2-ylidene]cyanamide]
0.0079	COC(=O)N=C1NCCN1Cc1sc2c(c1C)c(=O)n(C1CCCC1)c(=O)n2CCC(F)(F)F [Example 186, Methyl [1-{[3-cyclopentyl-5-methyl-2,4-dioxo-1-(3,3,3-trifluoropropyl)-1,2,3,4-tetrahydrothieno[2,3-d]pyrimidin-6-yl]methyl}imidazolidin-2-ylidene]carbamate]
0.019	Cc1c(CN2CCNC(=O)C2=O)sc2c1c(=O)n(C1CCCC1)c(=O)n2CCC(F)(F)F [Example 187, 3-Cyclopentyl-6-[(2,3-dioxopiperazin-1-yl)methyl]-5-methyl-1-(3,3,3-trifluoropropyl)thieno[2,3-d]pyrimidine-2,4(1H,3H)-dione]
0.1	Cc1c(Cn2nc[nH]c2=O)sc2c1c(=O)n(C1CCCC1)c(=O)n2CCC(F)(F)F [Example 188, 3-Cyclopentyl-5-methyl-6-[(5-oxo-4,5-dihydro-1H-1,2,4-triazol-1-yl)methyl]-1-(3,3,3-trifluoropropyl)thieno[2,3-d]pyrimidine-2,4(1H,3H)-dione]
0.04	COCCn1c(=O)n(C2CCCC2)c(=O)c2c(C)c(CN3CCNC3=O)sc21 [Example 189, 3-Cyclopentyl-1-(2-methoxyethyl)-5-methyl-6-[(2-oxoimidazolidin-1-yl)methyl]thieno[2,3-d]pyrimidine-2,4(1H,3H)-dione]
0.028	COCCn1c(=O)n(C2CCCC2)c(=O)c2c(C)c(CN3CCNC3=NC#N)sc21 [Example 190, [1-{[3-Cyclopentyl-1-(2-methoxyethyl)-5-methyl-2,4-dioxo-1,2,3,4-tetrahydrothieno[2,3-d]pyrimidin-6-yl]methyl}imidazolidin-2-ylidene]cyanamide]
0.018	COCCn1c(=O)n(C2CCCC2)c(=O)c2c(C)c(CN3CCNC3=NC(=O)OC)sc21 [Example 191, Methyl [1-{[3-cyclopentyl-1-(2-methoxyethyl)-5-methyl-2,4-dioxo-1,2,3,4-tetrahydrothieno[2,3-d]pyrimidin-6-yl]methyl}imidazolidin-2-ylidene]carbamate]
0.14	COCCn1c(=O)n(C2CCCC2)c(=O)c2c(C)c(CN3CCNC(=O)C3=O)sc21 [Example 192, 3-Cyclopentyl-6-[(2,3-dioxopiperazin-1-yl)methyl]-1-(2-methoxyethyl)-5-methylthieno[2,3-d]pyrimidine-2,4(1H,3H)-dione]
0.23	COCCn1c(=O)n(C2CCCC2)c(=O)c2c(C)c(Cn3nc[nH]c3=O)sc21 [Example 193, 3-Cyclopentyl-1-(2-methoxyethyl)-5-methyl-6-[(5-oxo-4,5-dihydro-1H-1,2,4-triazol-1-yl)methyl]thieno[2,3-d]pyrimidine-2,4(1H,3H)-dione]
0.18	CCn1c(=O)n(C2CC2)c(=O)c2c(C)c(Cn3nc[nH]c3=O)sc21 [Example 194, 3-Cyclopropyl-1-ethyl-5-methyl-6-[(5-oxo-4,5-dihydro-1H-1,2,4-triazol-1-yl)methyl]thieno[2,3-d]pyrimidine-2,4(1H,3H)-dione]
0.12	CCCn1c(=O)n(C2CC2)c(=O)c2c(C)c(Cn3nc[nH]c3=O)sc21 [Example 195, 3-Cyclopropyl-5-methyl-6-[(5-oxo-4,5-dihydro-1H-1,2,4-triazol-1-yl)methyl]-1-propylthieno[2,3-d]pyrimidine-2,4(1H,3H)-dione]
0.21	Cc1c(Cn2nc[nH]c2=O)sc2c1c(=O)n(C1CC1)c(=O)n2CCF [Example 196, 3-Cyclopropyl-1-(2-fluoroethyl)-5-methyl-6-[(5-oxo-4,5-dihydro-1H-1,2,4-triazol-1-yl)methyl]thieno[2,3-d]pyrimidine-2,4(1H,3H)-dione]
0.12	Cc1c(Cn2nc[nH]c2=O)sc2c1c(=O)n(C1CC1)c(=O)n2CCCF [Example 197, 3-Cyclopropyl-1-(3-fluoropropyl)-5-methyl-6-[(5-oxo-4,5-dihydro-1H-1,2,4-triazol-1-yl)methyl]thieno[2,3-d]pyrimidine-2,4(1H,3H)-dione]
0.19	Cc1c(Cn2nc[nH]c2=O)sc2c1c(=O)n(C1CC1)c(=O)n2CCCCF [Example 198, 3-Cyclopropyl-1-(4-fluorobutyl)-5-methyl-6-[(5-oxo-4,5-dihydro-H-1,2,4-triazol-1-yl)methyl]thieno[2,3-d]pyrimidine-2,4(1H,3H)-dione]
0.13	Cc1c(Cn2nc[nH]c2=O)sc2c1c(=O)n(C1CC1)c(=O)n2CC(F)F [Example 199, 3-Cyclopropyl-1-(2,2-difluoroethyl)-5-methyl-6-[(5-oxo-4,5-dihydro-H-1,2,4-triazol-1-yl)methyl]thieno[2,3-d]pyrimidine-2,4(1H,3H)-dione]
0.055	Cc1c(Cn2[nH]ccc2=O)sc2c1c(=O)n(C1CC1)c(=O)n2CCC(F)(F)F [Example 200, 3-Cyclopropyl-5-methyl-6-[(5-oxo-2,5-dihydro-H-pyrazol-1-yl)methyl]-1-(3,3,3-trifluoropropyl)thieno[2,3-d]pyrimidine-2,4(1H,3H)-dione]
0.053	Cc1c(Cn2nc[nH]c2=O)sc2c1c(=O)n(C1CC1)c(=O)n2CCCC(F)(F)F [Example 201, 3-Cyclopropyl-5-methyl-6-[(5-oxo-4,5-dihydro-1H-1,2,4-triazol-1-yl)methyl]-1-(4,4,4-trifluorobutyl)thieno[2,3-d]pyrimidine-2,4(1H,3H)-dione]
0.0018	Cc1c(CN2CCNC2=O)sc2c1c(=O)n(C1CC1)c(=O)n2CC1CC(F)(F)C1 [Example 204, 3-Cyclopropyl-1-[(3,3-difluorocyclobutyl)methyl]-5-methyl-6-[(2-oxoimidazolidin-1-yl)methyl]thieno[2,3-d]pyrimidine-2,4(1H,3H)-dione]
0.007	Cc1c(Cn2cc[nH]c2=O)sc2c1c(=O)n(C1CC1)c(=O)n2CC1CC(F)(F)C1 [Example 205, 3-Cyclopropyl-1-[(3,3-difluorocyclobutyl)methyl]-5-methyl-6-[(2-oxo-2,3-dihydro-1H-imidazol-1-yl)methyl]thieno[2,3-d]pyrimidine-2,4(1H,3H)-dione]
0.0062	Cc1c(Cn2nc[nH]c2=O)sc2c1c(=O)n(C1CC1)c(=O)n2CC1CC(F)(F)C1 [Example 206, 3-Cyclopropyl-1-[(3,3-difluorocyclobutyl)methyl]-5-methyl-6-[(5-oxo-4,5-dihydro-1H-1,2,4-triazol-1-yl)methyl]thieno[2,3-d]pyrimidine-2,4(1H,3H)-dione]
0.24	Cc1c(Cn2nc[nH]c2=O)sc2c1c(=O)n(C1CC1)c(=O)n2CCCC#N [Example 212, 4-{3-Cyclopropyl-5-methyl-2,4-dioxo-6-[(5-oxo-4,5-dihydro-1H-1,2,4-triazol-1-yl)methyl]-3,4-dihydrothieno[2,3-d]pyrimidin-1 (2H)-yl}butanenitrile]
0.04	Cc1c(Cn2nc[nH]c2=O)sc2c1c(=O)n(C1CC1)c(=O)n2CCSC(F)(F)F [Example 213, 3-Cyclopropyl-5-methyl-6-[(5-oxo-4,5-dihydro-1H-1,2,4-triazol-1-yl)methyl]-1-{2-[(trifluoromethyl)sulfanyl]ethyl}thieno[2,3-d]pyrimidine-2,4(1H,3H)-dione]
0.01	Cc1c(Cn2cc[nH]c2=O)sc2c1c(=O)n(C1(C)CC1)c(=O)n2CCC(F)(F)F [Example 214, 5-Methyl-3-(1-methylcyclopropyl)-6-[(2-oxo-2,3-dihydro-1H-imidazol-1-yl)methyl]-1-(3,3,3-trifluoropropyl)thieno[2,3-d]pyrimidine-2,4(1H,3H)-dione]
0.073	Cc1c(Cn2[nH]ccc2=O)sc2c1c(=O)n(C1(C)CC1)c(=O)n2CCC(F)(F)F [Example 215, 5-Methyl-3-(1-methylcyclopropyl)-6-[(5-oxo-2,5-dihydro-1H-pyrazol-1-yl)methyl]-1-(3,3,3-trifluoropropyl)thieno[2,3-d]pyrimidine-2,4(1H,3H)-dione]
0.0032	Cc1c(Cn2cc[nH]c2=O)sc2c1c(=O)n(C1(C)CC1)c(=O)n2CC1CC(F)(F)C1 [Example 216]
0.038	COCCn1c(=O)n(C2(C)CC2)c(=O)c2c(C)c(Cn3cc[nH]c3=O)sc21 [Example 217, 1-(2-Methoxyethyl)-5-methyl-3-(1-methylcyclopropyl)-6-[(2-oxo-2,3-dihydro-1H-imidazol-1-yl)methyl]thieno[2,3-d]pyrimidine-2,4(1H,3H)-dione]
